Reference: ChEMBL document CHEMBL3885861, “Open TG-GATES”

Species on record: Rattus norvegicus
Experiment: Open TG-GATES - Regimen: Daily Repeat
Assay type: toxicity, organism-based, Sprague-Dawley
Parameters: regimen Daily Repeat, gender Male, age 6 weeks
Details: in vivo, po, route gavage; for APTT / Bas / Eos / Fbg / Hb / Ht / Lym / MCH / MCHC / MCV / Mono / Neu / PT / Plat / RBC / Ret / WBC: tissue Blood; for KIDNEY_L / KIDNEY_R / KIDNEY_TOTAL: tissue Kidney; for LIVER: tissue Liver; for A/G / ALP / ALT / AST / BUN / CRE / Ca / Cl / DBIL / GLC / IP / K / LDH / Na / PL / RALB / TBIL / TC / TG / TP / gamma-GTP: tissue Plasma
[1] = 30 mg/kg, 72 h, dose level Middle, time 3 day
[2] = 30 mg/kg, […], dose level Middle, time 7 day
[3] = 30 mg/kg, […], dose level Middle, time 14 day
[4] = 30 mg/kg, […], dose level Middle, time 28 day
[5] = 100 mg/kg, 72 h, dose level High, time 3 day
[6] = 100 mg/kg, […], dose level High, time 7 day
[7] = 100 mg/kg, […], dose level High, time 14 day
[8] = 100 mg/kg, […], dose level High, time 28 day

CC1=C(/C=C/C(C)=C/C=C/C(C)=C/CO)C(C)(C)CCC1 [RETINOL]
TERMINAL_BW [1]: 230.8 g
APTT [1]: 23.3 s
Bas [1]: 0%
Eos [1]: 0.8%
Fbg [1]: 299 mg/dL
Hb [1]: 13.5 g/dL
Ht [1]: 39%
Lym [1]: 79.4%
MCH [1]: 21.5 pg
MCHC [1]: 34.7%
MCV [1]: 62 fL
Mono [1]: 2.4%
Neu [1]: 16.6%
PT [1]: 16.8 s
Plat [1]: 120.5 x10_4/uL
RBC [1]: 629.4 x10_4/ul
Ret [1]: 5.6%
WBC [1]: 103.8 x10_2/uL
KIDNEY_L [1]: 1 g
KIDNEY_R [1]: 0.9 g
KIDNEY_TOTAL [1]: 1.9 g
LIVER [1]: 11.2 g
A/G [1]: 1.3
ALP [1]: 2028 IU/L
ALT [1]: 48.8 IU/L
AST [1]: 78.6 IU/L
BUN [1]: 19.4 mg/dL
CRE [1]: 0.2 mg/dL
Ca [1]: 11 mg/dL
Cl [1]: 106.8 meq/L
DBIL [1]: 0.002 mg/dL
GLC [1]: 188.6 mg/dL
IP [1]: 6.4 mg/dL
K [1]: 4.3 meq/L
LDH [1]: 235.6 IU/L
Na [1]: 141.2 meq/L
PL [1]: 166.4 mg/dL
RALB [1]: 3.2 g/dL
TBIL [1]: 0.012 mg/dL
TC [1]: 78.8 mg/dL
TG [1]: 150 mg/dL
TP [1]: 5.7 g/dL
gamma-GTP [1]: 1.6 IU/L
TERMINAL_BW [2]: 256.2 g
TERMINAL_BW [3]: 297 g
TERMINAL_BW [4]: 360.9 g
APTT [2]: 26.4 s
Bas [2]: 0%
Eos [2]: 0.8%
Fbg [2]: 275.2 mg/dL
Hb [2]: 13.7 g/dL
Ht [2]: 39.4%
Lym [2]: 83.6%
MCH [2]: 20.8 pg
MCHC [2]: 34.8%
MCV [2]: 59.8 fL
Mono [2]: 1.6%
Neu [2]: 13.2%
PT [2]: 15.8 s
Plat [2]: 125.2 x10_4/uL
RBC [2]: 660.2 x10_4/ul
Ret [2]: 4.6%
WBC [2]: 81.8 x10_2/uL
APTT [3]: 28.5 s
Bas [3]: 0%
Eos [3]: 0.8%
Fbg [3]: 290.2 mg/dL
Hb [3]: 13.4 g/dL
Ht [3]: 38.1%
Lym [3]: 76.2%
MCH [3]: 20 pg
MCHC [3]: 35.1%
MCV [3]: 56.9 fL
Mono [3]: 2.6%
Neu [3]: 19.8%
PT [3]: 15.9 s
Plat [3]: 103.9 x10_4/uL
RBC [3]: 671.4 x10_4/ul
Ret [3]: 3.9%
WBC [3]: 101 x10_2/uL
APTT [4]: 37.3 s
Bas [4]: 0%
Eos [4]: 0.8%
Fbg [4]: 283 mg/dL
Hb [4]: 13.8 g/dL
Ht [4]: 38.6%
Lym [4]: 76.4%
MCH [4]: 19.6 pg
MCHC [4]: 35.7%
MCV [4]: 54.9 fL
Mono [4]: 2%
Neu [4]: 19.8%
PT [4]: 17.3 s
Plat [4]: 116.5 x10_4/uL
RBC [4]: 704 x10_4/ul
Ret [4]: 2.7%
WBC [4]: 133 x10_2/uL
KIDNEY_L [2]: 1.1 g
KIDNEY_R [2]: 1.1 g
KIDNEY_TOTAL [2]: 2.2 g
KIDNEY_L [3]: 1.2 g
KIDNEY_R [3]: 1.2 g
KIDNEY_TOTAL [3]: 2.4 g
KIDNEY_L [4]: 1.4 g
KIDNEY_R [4]: 1.4 g
KIDNEY_TOTAL [4]: 2.8 g
LIVER [2]: 11.7 g
LIVER [3]: 14.1 g
LIVER [4]: 15.1 g
A/G [2]: 1.2
ALP [2]: 1900.8 IU/L
ALT [2]: 48.4 IU/L
AST [2]: 82 IU/L
BUN [2]: 17.2 mg/dL
CRE [2]: 0.2 mg/dL
Ca [2]: 10.5 mg/dL
Cl [2]: 108.8 meq/L
DBIL [2]: 0.002 mg/dL
GLC [2]: 191 mg/dL
IP [2]: 6.6 mg/dL
K [2]: 4.4 meq/L
LDH [2]: 208.2 IU/L
Na [2]: 143 meq/L
PL [2]: 148.6 mg/dL
RALB [2]: 3 g/dL
TBIL [2]: 0.002 mg/dL
TC [2]: 71.4 mg/dL
TG [2]: 175.2 mg/dL
TP [2]: 5.5 g/dL
gamma-GTP [2]: 1 IU/L
A/G [3]: 1.2
ALP [3]: 1990.8 IU/L
ALT [3]: 49.4 IU/L
AST [3]: 83.8 IU/L
BUN [3]: 17.4 mg/dL
CRE [3]: 0.2 mg/dL
Ca [3]: 10.5 mg/dL
Cl [3]: 108.2 meq/L
DBIL [3]: 0 mg/dL
GLC [3]: 198.6 mg/dL
IP [3]: 5.9 mg/dL
K [3]: 4.2 meq/L
LDH [3]: 269 IU/L
Na [3]: 142.8 meq/L
PL [3]: 172.6 mg/dL
RALB [3]: 3 g/dL
TBIL [3]: 0.002 mg/dL
TC [3]: 74.4 mg/dL
TG [3]: 312 mg/dL
TP [3]: 5.6 g/dL
gamma-GTP [3]: 1.2 IU/L
A/G [4]: 1
ALP [4]: 1673.8 IU/L
ALT [4]: 56.6 IU/L
AST [4]: 79.8 IU/L
BUN [4]: 16.2 mg/dL
CRE [4]: 0.2 mg/dL
Ca [4]: 10.1 mg/dL
Cl [4]: 108 meq/L
DBIL [4]: 0 mg/dL
GLC [4]: 183.4 mg/dL
IP [4]: 6.2 mg/dL
K [4]: 4.2 meq/L
LDH [4]: 138.4 IU/L
Na [4]: 141 meq/L
PL [4]: 145 mg/dL
RALB [4]: 2.9 g/dL
TBIL [4]: 0.026 mg/dL
TC [4]: 66.6 mg/dL
TG [4]: 203.4 mg/dL
TP [4]: 5.7 g/dL
gamma-GTP [4]: 1.2 IU/L
TERMINAL_BW [5]: 214.3 g
APTT [5]: 29 s
Bas [5]: 0%
Eos [5]: 0.4%
Fbg [5]: 274.4 mg/dL
Hb [5]: 13.8 g/dL
Ht [5]: 39.8%
Lym [5]: 74.4%
MCH [5]: 21 pg
MCHC [5]: 34.6%
MCV [5]: 60.9 fL
Mono [5]: 3.4%
Neu [5]: 20.6%
PT [5]: 18.1 s
Plat [5]: 112.8 x10_4/uL
RBC [5]: 654.8 x10_4/ul
Ret [5]: 4.3%
WBC [5]: 95.3 x10_2/uL
KIDNEY_L [5]: 1 g
KIDNEY_R [5]: 1 g
KIDNEY_TOTAL [5]: 2 g
LIVER [5]: 10.3 g
A/G [5]: 1.3
ALP [5]: 2174.2 IU/L
ALT [5]: 52.2 IU/L
AST [5]: 83.8 IU/L
BUN [5]: 17 mg/dL
CRE [5]: 0.1 mg/dL
Ca [5]: 11.1 mg/dL
Cl [5]: 107 meq/L
DBIL [5]: 0.004 mg/dL
GLC [5]: 192.2 mg/dL
IP [5]: 7.9 mg/dL
K [5]: 4.3 meq/L
LDH [5]: 241 IU/L
Na [5]: 141.8 meq/L
PL [5]: 151.2 mg/dL
RALB [5]: 3.1 g/dL
TBIL [5]: 0.01 mg/dL
TC [5]: 70.6 mg/dL
TG [5]: 196.2 mg/dL
TP [5]: 5.6 g/dL
gamma-GTP [5]: 1.4 IU/L
TERMINAL_BW [6]: 231.5 g
TERMINAL_BW [7]: 234.2 g
TERMINAL_BW [8]: 190.7 g
APTT [6]: 32.7 s
Bas [6]: 0%
Eos [6]: 0.2%
Fbg [6]: 293.8 mg/dL
Hb [6]: 13.6 g/dL
Ht [6]: 38.5%
Lym [6]: 73.2%
MCH [6]: 21.1 pg
MCHC [6]: 35.2%
MCV [6]: 60 fL
Mono [6]: 2.6%
Neu [6]: 22.4%
PT [6]: 16.1 s
Plat [6]: 114.4 x10_4/uL
RBC [6]: 642.2 x10_4/ul
Ret [6]: 2%
WBC [6]: 102.2 x10_2/uL
APTT [7]: 43.8 s
Bas [7]: 0%
Eos [7]: 0.4%
Fbg [7]: 373.8 mg/dL
Hb [7]: 13 g/dL
Ht [7]: 36.5%
Lym [7]: 62.8%
MCH [7]: 20.2 pg
MCHC [7]: 35.6%
MCV [7]: 56.6 fL
Mono [7]: 4.2%
Neu [7]: 31.8%
PT [7]: 18.5 s
Plat [7]: 127.2 x10_4/uL
RBC [7]: 644.8 x10_4/ul
Ret [7]: 1.3%
WBC [7]: 139.1 x10_2/uL
APTT [8]: 37 s
Bas [8]: 0%
Eos [8]: 0.5%
Fbg [8]: 294 mg/dL
Hb [8]: 12.1 g/dL
Ht [8]: 34.3%
Lym [8]: 60.5%
MCH [8]: 17.9 pg
MCHC [8]: 35.2%
MCV [8]: 50.8 fL
Mono [8]: 5%
Neu [8]: 33.5%
PT [8]: 17.8 s
Plat [8]: 144.9 x10_4/uL
RBC [8]: 673 x10_4/ul
Ret [8]: 2.9%
WBC [8]: 160.4 x10_2/uL
KIDNEY_L [6]: 1.1 g
KIDNEY_R [6]: 1.1 g
KIDNEY_TOTAL [6]: 2.2 g
KIDNEY_L [7]: 1.1 g
KIDNEY_R [7]: 1.1 g
KIDNEY_TOTAL [7]: 2.2 g
KIDNEY_L [8]: 1 g
KIDNEY_R [8]: 1.1 g
KIDNEY_TOTAL [8]: 2.1 g
LIVER [6]: 11.9 g
LIVER [7]: 11.2 g
LIVER [8]: 9.5 g
A/G [6]: 1
ALP [6]: 2413.2 IU/L
ALT [6]: 47.8 IU/L
AST [6]: 91.4 IU/L
BUN [6]: 16.8 mg/dL
CRE [6]: 0.2 mg/dL
Ca [6]: 11.5 mg/dL
Cl [6]: 104.8 meq/L
DBIL [6]: 0 mg/dL
GLC [6]: 182.6 mg/dL
IP [6]: 8.9 mg/dL
K [6]: 4.3 meq/L
LDH [6]: 266 IU/L
Na [6]: 142.6 meq/L
PL [6]: 162.2 mg/dL
RALB [6]: 2.8 g/dL
TBIL [6]: 0.008 mg/dL
TC [6]: 76.4 mg/dL
TG [6]: 306.2 mg/dL
TP [6]: 5.6 g/dL
gamma-GTP [6]: 1.4 IU/L
A/G [7]: 0.7
ALP [7]: 1719.6 IU/L
ALT [7]: 43.8 IU/L
AST [7]: 99.6 IU/L
BUN [7]: 13.6 mg/dL
CRE [7]: 0.2 mg/dL
Ca [7]: 11.3 mg/dL
Cl [7]: 106.2 meq/L
DBIL [7]: 0 mg/dL
GLC [7]: 186.6 mg/dL
IP [7]: 7.7 mg/dL
K [7]: 4.1 meq/L
LDH [7]: 212.8 IU/L
Na [7]: 141.8 meq/L
PL [7]: 136.2 mg/dL
RALB [7]: 2.1 g/dL
TBIL [7]: 0.002 mg/dL
TC [7]: 67.8 mg/dL
TG [7]: 151.8 mg/dL
TP [7]: 5 g/dL
gamma-GTP [7]: 1.2 IU/L
A/G [8]: 0.6
ALP [8]: 1327.7 IU/L
ALT [8]: 55.3 IU/L
AST [8]: 166.3 IU/L
BUN [8]: 52 mg/dL
CRE [8]: 0.3 mg/dL
Ca [8]: 10.5 mg/dL
Cl [8]: 113 meq/L
DBIL [8]: 0.01 mg/dL
GLC [8]: 225 mg/dL
IP [8]: 9.1 mg/dL
K [8]: 4.1 meq/L
LDH [8]: 685.3 IU/L
Na [8]: 148.3 meq/L
PL [8]: 85 mg/dL
RALB [8]: 1.7 g/dL
TBIL [8]: 0.0233 mg/dL
TC [8]: 43.7 mg/dL
TG [8]: 57.3 mg/dL
TP [8]: 4.4 g/dL
gamma-GTP [8]: 2.3 IU/L
